Data as given in patent publication US8828414B2, “Biocidal composition of 2,6-dimethyl-m-dioxane-4-ol acetate and methods of use” (priority 2009, dated 2014).

Legend:
Format in all cases: cell-based
[1] = test system: Pseudomonas aeruginosa, Enterobacter aerogenes, Escherichia coli, Klebsiella pneumoniae, Staphylococcus aureus, Salmonella choleraesuis (combined cultures); experiment: Preservative efficacy of DMX/BNPD in water-based latex paint, repeated bacterial challenge; conditions: for log10 viable microorganisms recovered: day 20
Method: (§1) Synergy Calculations. The reported synergy indexes are measured and calculated using the formula described below. In this approach, a synergy index of 1 indicates additivity. If the index is less than 1, synergy has occurred, while a synergy index greater than 1 indicates antagonism. Synergy index=CA/Ca+CB/Cb • Ca=minimal concentration of antimicrobial A, alone, producing a 4 log10 microbial kill • Cb=minimal concentration of antimicrobial B, alone, producing a 4 log10 microbial kill
(§2) CA and CB=the concentrations of antimicrobials A and B, in combination, producing the required microbial kill (a 4 log10 microbial kill unless indicated otherwise in a particular Example).
In this Example, the antimicrobial profiles of dimethoxane (DMX), 2-bromo-2-nitropropane-1,3-diol (BNPD) and combinations of DMX and BNPD are evaluated in a commercial (interior eggshell) water-based latex paint formulation (pH 7.4). The paint formulation is determined to be free of microbial contamination prior to initiation of preservative efficacy evaluations.
Experimental Setup. Tests are conducted in a 96-deep well block format using a total sample volume of 600 μl for all evaluations. In these samples, no more than 10% of the total volume consists of the biocide and organism solution and all non-matrix additions are normalized for all samples. Each experimental 96-well block contains biocide-treated samples and control samples which lack biocide.
Microorganisms. Twenty-four hour tryptic soy broth cultures are combined in equal parts for formulation inoculation at a final concentration of 5×10^6 CFU/ml. Organisms are added to each sample of the 96-well block and mixed until homogenous. Additionally, bacterial challenges of the paint samples occur on days 0, 2, 7, and 14 of the 28-day test period. Organisms utilized: Pseudomonas aeruginosa (ATCC#15442), Pseudomonas aeruginosa (ATCC#10145), Enterobacter aerogenes (ATCC#13048), Escherichia coli (ATCC#11229), Klebsiella pneumoniae (ATCC#8308), Staphylococcus aureus (ATCC#6538), Salmonella choleraesuis (ATCC#10708).
Enumeration of Viable Organisms. Sample aliquots are removed, at predetermined time points, for the enumeration of surviving microorganisms. Numerical values in the data tables listed below represent the log10 viable microorganisms recovered from individual samples at specific time points and biocide concentrations post microorganism addition. Biocide concentrations resulting in a ≧4 log10 kill of microorganisms, as compared to the preservative-free control, are deemed a significant reduction of viable organisms and are subsequently used for calculating synergy index values.

[2] = test system: Pseudomonas aeruginosa, Enterobacter aerogenes, Escherichia coli, Klebsiella pneumoniae, Staphylococcus aureus, Salmonella choleraesuis (combined cultures); experiment: Preservative efficacy of DMX/BNPD in spinning finish emulsion, repeated bacterial challenge; conditions: ≧6 log10 microbial kill, day 27, post 4th microbial challenge
Method: as §1, §2
In this Example, the antimicrobial profiles of dimethoxane (DMX), 2-bromo-2-nitropropane-1,3-diol (BNPD) and combinations of DMX and BNPD are evaluated in a spinning finish emulsion. The spinning finish emulsion is determined to be free of microbial contamination prior to initiation of preservative efficacy evaluations. The spinning finish emulsion is prepared by adding 1 part spinning finish oil to 9 parts distilled water followed by 30 minutes of mixing.
Experimental Setup. Tests are conducted in a 96-deep well block format using a total sample volume of 300 to 600 μl for all evaluations. […]

[3] = test system: Pseudomonas aeruginosa, Enterobacter gergoviae, Pseudomonas putida, Salmonella choleraesuis, Escherichia coli, Staphylococcus aureus (mixed inoculum); experiment: Preservative efficacy of dimethoxane/BNPD in laundry detergent, repeated bacterial challenge; set-up: key to viable microorganism score (0-8 scale): 0-8 score = number of 1:10 dilutions to reach growth endpoint; conditions: day 20
Method: as §1, §2
A sample of laundry detergent is treated with dimethoxane, BNPD, and combinations thereof. The samples are inoculated with four times over a four-week period with a 5×10^6 colony forming units per milliliter (CFU/mL) inoculum that includes Pseudomonas aeruginosa ATCC#9027, Enterobacter gergoviae ATCC#33028 Pseudomonas putida ATCC#49128, Salmonella choleraesuis ATCC#10708, Pseudomonas aeruginosa ATCC#10145, Pseudomonas aeruginosa ATCC#15442, Escherichia coli ATCC#11229, and Staphylococcus aureus ATCC#6538. The samples are inoculated on days 0, 2, 7, and 14 and analyzed for bacteria content on days 0, 1, 2, 3, 6, 8, 13, 15, 20, and 27. The bacteria concentrations are determined by serial dilution (1:10) until a growth endpoint is reached. The sample is scored on a 0-8 scale, based upon the number of serial dilutions required to reach the growth endpoint. For example, if a sample requires four 1:10 dilutions before bacterial growth is lost, then the sample receives a score of 4 which represents between 5×10^4 and 5×10^5 viable organisms.

[4] = test system: Pseudomonas aeruginosa, Enterobacter gergoviae, Pseudomonas putida, Salmonella choleraesuis, Escherichia coli, Staphylococcus aureus (mixed inoculum); experiment: Preservative efficacy of dimethoxane/2-phenoxyethanol in laundry detergent, repeated bacterial challenge; conditions: day 27
[5] = test system: Pseudomonas aeruginosa, Enterobacter gergoviae, Pseudomonas putida, Salmonella choleraesuis, Escherichia coli, Staphylococcus aureus (mixed inoculum); experiment: Preservative efficacy of dimethoxane/dibromoglutaronitrile in laundry detergent, repeated bacterial challenge; conditions: day 20
[6] = ≧4 log10 microbial kill, day 20, after four bacterial challenges, ppm active
[7] = minimal concentration alone giving passing score (2 or less)

For `O=[N+]([O-])C(Br)(CO)CO` [BNPD, 2-Bromo-2-nitropropane-1,3-diol], the “log10 viable microorganisms recovered” value ([1]; BNPD 26 ppm alone) was 8, the “log10 viable microorganisms recovered” value ([1]; BNPD 40 ppm alone) was 8 and the “log10 viable microorganisms recovered” value ([1]; BNPD 59 ppm alone) was 8. For the same compound, the “log10 viable microorganisms recovered” value ([1]; BNPD 89 ppm alone) was 8, the “log10 viable microorganisms recovered” value ([1]; BNPD 133 ppm alone) was 8 and the “log10 viable microorganisms recovered” value ([1]; BNPD 200 ppm alone) was 8. The “log10 viable microorganisms recovered” value ([1]; BNPD 300 ppm alone) was 0, the “log10 viable microorganisms recovered” value ([1]; BNPD 450 ppm alone) was 0 and the “BNPD alone (ppm)” value [1, 6] was 300 ppm. For the same compound, the “BNPD alone (ppm), active concentration necessary for microbial kill” value [2] was 137 ppm, the “BNPD alone (ppm)” value ([3]; 4 log10 kill of bacteria) was 99 ppm and the “viable microorganism score (0-8 scale)” value ([3]; BNPD 44 ppm alone) was 4.0. For the same compound, the “viable microorganism score (0-8 scale)” value ([3]; BNPD 66 ppm alone) was 2.0, the “viable microorganism score (0-8 scale)” value ([3]; BNPD 99 ppm alone) was 0.0 and the “viable microorganism score (0-8 scale)” value ([3]; BNPD 148 ppm alone) was 0.0. For the same compound, the “viable microorganism score (0-8 scale)” value ([3]; BNPD 222 ppm alone) was 0.0, the “viable microorganism score (0-8 scale)” value ([3]; BNPD 333 ppm alone) was 0.0 and the “viable microorganism score (0-8 scale)” value ([3]; BNPD 500 ppm alone) was 0.0. For the same compound, the “viable microorganism score (0-8 scale)” value ([3]; BNPD 750 ppm alone) was 0.0.
In the case of `OCCOc1ccccc1` [Combination 2-PE, 2-Phenoxyethanol], the “viable microorganism score (0-8 scale)” value ([4]; 2-PE 585 ppm alone) is reported as 7, the “viable microorganism score (0-8 scale)” value ([4]; 2-PE 878 ppm alone) is reported as 7 and the “viable microorganism score (0-8 scale)” value ([4]; 2-PE 1317 ppm alone) is reported as 7. For the same compound, the “viable microorganism score (0-8 scale)” value ([4]; 2-PE 1975 ppm alone) was 7, the “viable microorganism score (0-8 scale)” value ([4]; 2-PE 2963 ppm alone) was 5 and the “viable microorganism score (0-8 scale)” value ([4]; 2-PE 4444 ppm alone) was 6. For the same compound, the “viable microorganism score (0-8 scale)” value ([4]; 2-PE 6667 ppm alone) was 6, the “viable microorganism score (0-8 scale)” value ([4]; 2-PE 10000 ppm alone) was 0 and the “Min alone, 2-PE (ppm)” value [4, 7] was 10000 ppm.
For `N#CCCC(Br)(C#N)CBr` (stereo not shown) [DBGN, 2-Bromo-2-(bromomethyl)glutaronitrile], the “viable microorganism score (0-8 scale)” value ([5]; DBGN 3 ppm alone) was 8, the “viable microorganism score (0-8 scale)” value ([5]; DBGN 4 ppm alone) was 8 and the “viable microorganism score (0-8 scale)” value ([5]; DBGN 7 ppm alone) was 8. The “viable microorganism score (0-8 scale)” value ([5]; DBGN 10 ppm alone) was 8, the “viable microorganism score (0-8 scale)” value ([5]; DBGN 15 ppm alone) was 8 and the “viable microorganism score (0-8 scale)” value ([5]; DBGN 22 ppm alone) was 7. The “viable microorganism score (0-8 scale)” value ([5]; DBGN 33 ppm alone) was 3, the “viable microorganism score (0-8 scale)” value ([5]; DBGN 50 ppm alone) was 0 and the “Min alone, DBGN (ppm)” value [5, 7] was 50 ppm.
For `CC(=O)OC1CC(C)OC(C)O1` (stereo not shown) [DMX, 2,6-Dimethyl-m-dioxan-4-ol acetate], the “log10 viable microorganisms recovered” value ([1]; DMX 102 ppm alone) was 8, the “log10 viable microorganisms recovered” value ([1]; DMX 153 ppm alone) was 8 and the “log10 viable microorganisms recovered” value ([1]; DMX 229 ppm alone) was 8. For the same compound, the “log10 viable microorganisms recovered” value ([1]; DMX 344 ppm alone) was 8, the “log10 viable microorganisms recovered” value ([1]; DMX 516 ppm alone) was 8 and the “log10 viable microorganisms recovered” value ([1]; DMX 773 ppm alone) was 8. The “log10 viable microorganisms recovered” value ([1]; DMX 1160 ppm alone) was 8, the “log10 viable microorganisms recovered” value ([1]; DMX 1740 ppm alone) was 0 and the “DMX alone (ppm)” value [1, 6] was 1740 ppm. The “viable microorganism score (0-8 scale)” value ([5]; DMX 76 ppm alone) was 8, the “viable microorganism score (0-8 scale)” value ([5]; DMX 115 ppm alone) was 8 and the “viable microorganism score (0-8 scale)” value ([5]; DMX 172 ppm alone) was 8. For the same compound, the “viable microorganism score (0-8 scale)” value ([5]; DMX 258 ppm alone) was 7, the “viable microorganism score (0-8 scale)” value ([5]; DMX 387 ppm alone) was 3 and the “viable microorganism score (0-8 scale)” value ([5]; DMX 580 ppm alone) was 2. For the same compound, the “viable microorganism score (0-8 scale)” value ([5]; DMX 870 ppm alone) was 2, the “viable microorganism score (0-8 scale)” value ([5]; DMX 1305 ppm alone) was 0 and the “Min alone, DMX (ppm)” value [5, 7] was 580 ppm. The “viable microorganism score (0-8 scale)” value ([4]; DMX 153 ppm alone) was 7, the “viable microorganism score (0-8 scale)” value ([4]; DMX 229 ppm alone) was 6 and the “viable microorganism score (0-8 scale)” value ([4]; DMX 344 ppm alone) was 6. The “viable microorganism score (0-8 scale)” value ([4]; DMX 516 ppm alone) was 6, the “viable microorganism score (0-8 scale)” value ([4]; DMX 773 ppm alone) was 0 and the “viable microorganism score (0-8 scale)” value ([4]; DMX 1160 ppm alone) was 0. For the same compound, the “viable microorganism score (0-8 scale)” value ([4]; DMX 1740 ppm alone) was 0, the “viable microorganism score (0-8 scale)” value ([4]; DMX 2610 ppm alone) was 0 and the “Min alone, Dimethoxane (ppm)” value [4, 7] was 773 ppm. The “DMX alone (ppm)” value ([3]; 4 log10 kill of bacteria) was 1160 ppm, the “viable microorganism score (0-8 scale)” value ([3]; DMX 153 ppm alone) was 5.0 and the “viable microorganism score (0-8 scale)” value ([3]; DMX 229 ppm alone) was 5.0. For the same compound, the “viable microorganism score (0-8 scale)” value ([3]; DMX 344 ppm alone) was 5.0, the “viable microorganism score (0-8 scale)” value ([3]; DMX 516 ppm alone) was 6.0 and the “viable microorganism score (0-8 scale)” value ([3]; DMX 773 ppm alone) was 4.0. The “viable microorganism score (0-8 scale)” value ([3]; DMX 1160 ppm alone) was 0.0, the “viable microorganism score (0-8 scale)” value ([3]; DMX 1740 ppm alone) was 0.0 and the “viable microorganism score (0-8 scale)” value ([3]; DMX 2610 ppm alone) was 0.0.
